Source: patent publication US6936585B2, “Corticotropin releasing factor 2 receptor agonists” (priority 2002, dated 2005)
Ends that are not written are not given here. Peptide text beside a SMILES is read from it.

Key:
CRF2R = biological target: T1, CRF2R (Homo sapiens, UniProt Q13324); experiment: CRF2R agonist activation (EC50 / Emax), called comparative CRF binding; type: cell-based; conditions: read-out: CRF2R Emax
T1 sequence (Q13324 1-411): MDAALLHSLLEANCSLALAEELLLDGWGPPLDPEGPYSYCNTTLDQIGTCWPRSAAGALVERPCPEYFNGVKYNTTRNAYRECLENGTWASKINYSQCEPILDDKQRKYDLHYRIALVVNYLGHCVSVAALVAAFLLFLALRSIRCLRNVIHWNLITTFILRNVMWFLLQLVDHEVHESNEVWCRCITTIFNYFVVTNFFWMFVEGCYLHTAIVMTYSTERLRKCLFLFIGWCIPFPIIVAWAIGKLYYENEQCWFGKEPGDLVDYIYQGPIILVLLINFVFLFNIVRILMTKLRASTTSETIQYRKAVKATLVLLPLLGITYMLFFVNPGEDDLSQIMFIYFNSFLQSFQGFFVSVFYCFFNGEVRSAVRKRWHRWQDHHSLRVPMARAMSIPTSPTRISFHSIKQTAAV
Excerpt: (§1) The pharmacological activity and selectivity of the peptides of present invention can be determined using published test procedures. See, e.g, U.S. patent application Ser. No. 09/799,978 (now issued U.S. Pat. No. 6,670,140). Because CRF2R and CRF1R are homologous proteins, it is expected that a certain proportion of agonists for CRF2R will also function as agonists of CRF1R. As discussed above, activation of CRF1R induces activation of the HPA axis since increased corticosteroid production leads to skeletal muscle atrophy. In most cases in which an increase in muscle mass or function is desired, it is not desirable to activate the HPA axis.
(§2) Cell-based assays include the steps of contacting cells which express CRF1R or CRF2R with a peptide of the present invention or control and measuring activation of the CRFR by measuring the expression or activity of components of the CRFR signal transduction pathways.
(§3) For example, after contact with a peptide of the present invention, lysates of the cells can be prepared and assayed for induction of cAMP. cAMP is induced in response to Gαs activation. Because Gαs is activated by receptors other than CRFR and because a test peptide may be exerting its effect through CRFRs or by another mechanism, two control comparisons are relevant for determining whether the peptide increases levels of cAMP via activation of a CRFR. One control compares the cAMP level of cells contacted with the peptide and the cAMP level of cells contacted with a control compound (i.e., the vehicle in which the peptide is dissolved).
(§4) In one example, cAMP induction is measured with the use of DNA constructs containing the cAMP responsive element linked to any of a variety of reporter genes can be introduced into cells expressing CRFRs. Such reporter genes include, but are not limited to, chloramphenicol acetyltransferase (CAT), luciferase, glucuronide synthetase, growth hormone, fluorescent proteins (e.g., Green Fluorescent Protein), or alkaline phosphatase. Following exposure of the cells to the peptide, the level of reporter gene expression can be quantitated to determine the peptide's ability to increase cAMP levels and thus determine the peptide's ability to activate the CRFR.
(§5) In addition to using cells expressing full length CRFRs, cells can be engineered which express CRFRs containing the ligand binding domain of the receptor coupled to, or physically modified to contain, reporter elements or to interact with signaling proteins. For example, a wild type CRFR or CRFR fragment can be fused to a G-protein resulting in activation of the fused G-protein upon agonist binding to the CRFR portion of the fusion protein. […] In addition, alternative pathways for induction of the CRE reporter could be eliminated to reduce basal levels.

CRF1R = biological target: T2, CRF1R (Homo sapiens, UniProt P34998); experiment: CRF1R agonist activation (EC50 / Emax), called comparative CRF binding; type: cell-based; conditions: for Emax: read-out: CRF1R Emax; for EC50: read-out: CRF1R EC50
T2 sequence (P34998 24-415): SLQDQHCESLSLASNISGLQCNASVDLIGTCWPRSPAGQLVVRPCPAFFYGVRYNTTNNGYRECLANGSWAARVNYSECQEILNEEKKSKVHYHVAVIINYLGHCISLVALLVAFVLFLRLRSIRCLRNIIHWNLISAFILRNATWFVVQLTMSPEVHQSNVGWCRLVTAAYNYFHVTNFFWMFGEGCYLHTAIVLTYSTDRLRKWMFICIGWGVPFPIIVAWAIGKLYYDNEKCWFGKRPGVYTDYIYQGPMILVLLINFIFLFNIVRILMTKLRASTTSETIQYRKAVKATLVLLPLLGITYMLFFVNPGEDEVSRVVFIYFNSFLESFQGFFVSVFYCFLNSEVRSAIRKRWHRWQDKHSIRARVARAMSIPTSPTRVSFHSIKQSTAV
Excerpt: as §1, §2, §3, §4, §5

Row | Compound | Emax (CRF2R) [%] | Emax (CRF1R) [%] | EC50 (CRF1R) [nM]
1 | SQEPPISLDLPTHLLREVLEMTKADQLAQQAHSNRKLLDIA-NH2 [compound 99] | 4.35 | 4.35 | –
2 | SQEPPISLDLPTELLREVLEMTKADQLAQQAHSNRKIIDIA-NH2 [compound 92] | 15.8 | 4.6 | –
3 | CC[C@H](C)[C@H](N)C(=O)N[C@H](C(=O)N[C@@H](CC(C)C)C(=O)N[C@@H](CO)C(=O)N[C@@H](CC(C)C)C(=O)N[C@@H](CC(=O)O)C(=O)N[C@H](C(=O)N1CCC[C@H]1C(=O)N[C@H](C(=O)NCC(=O)N[C@@H](CC(C)C)C(=O)N[C@@H](CC(C)C)C(=O)N[C@@H](CCC(N)=O)C(=O)N[C@H](C(=O)N[C@@H](CC(C)C)C(=O)N[C@@H](CC(C)C)C(=O)N[C@@H](CCC(=O)O)C(=O)N[C@@H](CCC(N)=O)C(=O)N[C@@H](C)C(=O)N[C@@H](CCCNC(=N)N)C(=O)N[C@@H](Cc1c[nH]cn1)C(=O)N[C@@H](C)C(=O)N[C@@H](Cc1c[nH]cn1)C(=O)N[C@@H](C)C(=O)N[C@@H](Cc1c[nH]cn1)C(=O)N[C@@H](C)C(=O)N[C@@H](Cc1c[nH]cn1)C(=O)N[C@@H](C)C(=O)N[C@@H](Cc1c[nH]cn1)C(=O)N[C@@H](C)C(=O)N[C@@H](CCC(N)=O)C(=O)N[C@@H](C)C(=O)N[C@@H](Cc1c[nH]cn1)C(=O)N[C@H](C(=O)N[C@@H](CC(C)C)C(=O)N[C@@H](C)C(=O)N[C@@H](Cc1c[nH]cn1)C(=O)N[C@H](C(N)=O)C(C)C)[C@@H](C)CC)[C@@H](C)CC)[C@@H](C)CC)C(C)C)C(C)C [compound 369] (H-IVLSLDVPIGLLQILLEQARHAHAHAHAHAQAHILAHV-NH2) | 18 | 4 | –
4 | SQEPPISLDLPLELLREVLEMTKADQLAQQAHSNRKLLDIA-NH2 [compound 89] | 12.7 | – | –
5 | CC[C@H](C)[C@H](N)C(=O)N[C@H](C(=O)N[C@@H](CC(C)C)C(=O)N[C@@H](CO)C(=O)N[C@@H](CC(C)C)C(=O)N[C@@H](CC(=O)O)C(=O)N[C@H](C(=O)N1CCC[C@H]1C(=O)N[C@H](C(=O)NCC(=O)N[C@@H](CC(C)C)C(=O)N[C@@H](CC(C)C)C(=O)N[C@@H](CCC(N)=O)C(=O)N[C@H](C(=O)N[C@@H](CC(C)C)C(=O)N[C@@H](CC(C)C)C(=O)N[C@@H](CCC(=O)O)C(=O)N[C@@H](CCC(N)=O)C(=O)N[C@@H](CCC(=O)O)C(=O)N[C@@H](CCCCN)C(=O)N[C@@H](C)C(=O)N[C@@H](CCCNC(=N)N)C(=O)N[C@@H](C)C(=O)N[C@@H](C)C(=O)N[C@@H](CCCNC(=N)N)C(=O)N[C@@H](CCC(=O)O)C(=O)N[C@@H](CCC(N)=O)C(=O)N[C@@H](C)C(=O)N[C@H](C(=O)N[C@H](C(=O)N[C@@H](CC(N)=O)C(=O)N[C@@H](C)C(=O)N[C@@H](CCCNC(=N)N)C(=O)N[C@H](C(=O)N[C@@H](CC(C)C)C(=O)N[C@@H](C)C(=O)N[C@@H](CCCNC(=N)N)C(=O)N[C@H](C(N)=O)C(C)C)[C@@H](C)CC)[C@@H](C)O)[C@@H](C)O)[C@@H](C)CC)[C@@H](C)CC)C(C)C)C(C)C [compound 107] (H-IVLSLDVPIGLLQILLEQEKARAAREQATTNARILARV-NH2; N-terminus assumed) | 87.9 | – | –
6 | CC[C@H](C)[C@H](N)C(=O)N[C@H](C(=O)N[C@@H](CC(C)C)C(=O)N[C@@H](CO)C(=O)N[C@@H](CC(C)C)C(=O)N[C@@H](CC(=O)O)C(=O)N[C@H](C(=O)N1CCC[C@H]1C(=O)N[C@H](C(=O)NCC(=O)N[C@@H](CC(C)C)C(=O)N[C@@H](CC(C)C)C(=O)N[C@@H](CCC(N)=O)C(=O)N[C@H](C(=O)N[C@@H](CC(C)C)C(=O)N[C@@H](CC(C)C)C(=O)N[C@@H](CCC(=O)O)C(=O)N[C@@H](CCC(N)=O)C(=O)N[C@H](C(=O)N[C@@H](CCCCN)C(=O)N[C@@H](C)C(=O)N[C@@H](CCCNC(=N)N)C(=O)N[C@@H](C)C(=O)N[C@@H](C)C(=O)N[C@@H](CCCNC(=N)N)C(=O)N[C@@H](CCC(=O)O)C(=O)N[C@@H](CCC(N)=O)C(=O)N[C@@H](C)C(=O)N[C@H](C(=O)N[C@H](C(=O)N[C@@H](CC(N)=O)C(=O)N[C@@H](C)C(=O)N[C@@H](CCCNC(=N)N)C(=O)N[C@H](C(=O)N[C@@H](CC(C)C)C(=O)N[C@@H](C)C(=O)N[C@@H](CCCNC(=N)N)C(=O)N[C@H](C(N)=O)C(C)C)[C@@H](C)CC)[C@@H](C)O)[C@@H](C)O)[C@@H](C)O)[C@@H](C)CC)[C@@H](C)CC)C(C)C)C(C)C [compound 129] (H-IVLSLDVPIGLLQILLEQTKARAAREQATTNARILARV-NH2; N-terminus assumed) | – | – | > 100
7 | CC[C@H](C)[C@H](N)C(=O)N[C@H](C(=O)N[C@@H](CC(C)C)C(=O)N[C@@H](CO)C(=O)N[C@@H](CC(C)C)C(=O)N[C@@H](CC(=O)O)C(=O)N[C@H](C(=O)N1CCC[C@H]1C(=O)N[C@H](C(=O)NCC(=O)N[C@@H](CC(C)C)C(=O)N[C@@H](CC(C)C)C(=O)N[C@@H](CCC(N)=O)C(=O)N[C@H](C(=O)N[C@@H](CC(C)C)C(=O)N[C@@H](CC(C)C)C(=O)N[C@@H](CCC(=O)O)C(=O)N[C@@H](CCC(N)=O)C(=O)N[C@@H](C)C(=O)N[C@@H](CCCNC(=N)N)C(=O)N[C@@H](C)C(=O)N[C@@H](CCCNC(=N)N)C(=O)N[C@@H](C)C(=O)N[C@@H](C)C(=O)N[C@@H](CCCNC(=N)N)C(=O)N[C@@H](CCC(=O)O)C(=O)N[C@@H](CCC(N)=O)C(=O)N[C@@H](C)C(=O)N[C@H](C(=O)N[C@H](C(=O)N[C@@H](CC(N)=O)C(=O)N[C@@H](C)C(=O)N[C@@H](CCCNC(=N)N)C(=O)N[C@H](C(=O)N[C@@H](CC(C)C)C(=O)N[C@@H](C)C(=O)N[C@@H](CCCNC(=N)N)C(=O)N[C@H](C(=O)N[C@@H](CCSC)C(N)=O)C(C)C)[C@@H](C)CC)[C@@H](C)O)[C@@H](C)O)[C@@H](C)CC)[C@@H](C)CC)C(C)C)C(C)C [compound 356] (H-IVLSLDVPIGLLQILLEQARARAAREQATTNARILARVM-NH2) | – | 9 | –
8 | CC[C@H](C)[C@H](N)C(=O)N[C@H](C(=O)N[C@@H](CC(C)C)C(=O)N[C@@H](CO)C(=O)N[C@@H](CC(C)C)C(=O)N[C@@H](CC(=O)O)C(=O)N[C@H](C(=O)N1CCC[C@H]1C(=O)N[C@H](C(=O)NCC(=O)N[C@@H](CC(C)C)C(=O)N[C@@H](CC(C)C)C(=O)N[C@@H](CCC(N)=O)C(=O)N[C@H](C(=O)N[C@@H](CC(C)C)C(=O)N[C@@H](CC(C)C)C(=O)N[C@@H](CCC(=O)O)C(=O)N[C@@H](CCC(N)=O)C(=O)N[C@@H](C)C(=O)N[C@@H](CCCCN)C(=O)N[C@@H](C)C(=O)N[C@@H](CCCNC(=N)N)C(=O)N[C@@H](C)C(=O)N[C@@H](C)C(=O)N[C@@H](CCCNC(=N)N)C(=O)N[C@@H](CCC(=O)O)C(=O)N[C@@H](CCC(N)=O)C(=O)N[C@@H](C)C(=O)N[C@H](C(=O)N[C@H](C(=O)N[C@@H](CC(N)=O)C(=O)N[C@@H](C)C(=O)N[C@@H](CCCNC(=N)N)C(=O)N[C@H](C(=O)N[C@@H](CC(C)C)C(=O)N[C@@H](C)C(=O)N[C@@H](CCCNC(=N)N)C(=O)N[C@H](C(N)=O)C(C)C)[C@@H](C)CC)[C@@H](C)O)[C@@H](C)O)[C@@H](C)CC)[C@@H](C)CC)C(C)C)C(C)C [compound 127] (H-IVLSLDVPIGLLQILLEQAKARAAREQATTNARILARV-NH2; N-terminus assumed) | – | – | > 100
